In US20240058299A1 (Humanetics Corporation, priority 2021, published 2024):
Entries after “also recorded” stand apart in the source; their conditions may differ.

How the values were obtained:
[1] = system: NF-κB, pro-inflammatory cytokines (IL-1, IL-6, TNFα), pro-fibrotic proteins (TGFβ, MMP-2, MMP-9, LDH); settings: literature reports; cited from earlier work
[2] = system: microHeart cells (human induced pluripotent stem cell-derived cardiac cells); assay: Survival of irradiated microHeart cells by trypan blue staining; type: cell-based
Procedure: Cell survival was measured by trypan blue staining. The number of surviving cells 24 hours after irradiation is plotted. […] Cell survival was measured by trypan blue staining. The number of surviving cells 72 hours after irradiation is plotted.
Further studies using genistein were conducted in microHeart cells (StemoniX, Maple Grove, MN) exposed to different types of radiation. […] Cell survival was evaluated 24 hours after radiation exposure. […] Cell survival was evaluated 72 hours after radiation exposure. […] Moreover, since cell death causes the release of pro-inflammatory signals, protecting cells from death may reduce inflammation.

[3] = Solubility in pharmaceutically acceptable solvents; type: physicochemical; settings: several pharmaceutically acceptable solvents
From the text: The relative amount of genistein included in such a suspension can be varied to yield a formulation having a desired total content of genistein.

O=c1c(-c2ccc(O)cc2)coc2cc(O)cc(O)c12 [genistein, 5,7-dihydroxy-3-(4-hydroxyphenyl)-4H-chromen-4-one]
expression of NF-κB, pro-inflammatory cytokines and pro-fibrotic proteins [1]: reduce expression
killing effect of γ-radiation (cell survival) ([2]; 0.5 μM or 5 μM, 24 hours before 1 Gy γ-radiation, survival 24 hours after irradiation): the killing effect was mitigated by genistein; also recorded: Genistein treatment was radioprotective
killing effect of mixed field radiation (cell survival) ([2]; 0.5 μM, 24 hours before 1 Gy mixed field radiation (˜32% neutron, −68% gamma), survival 72 hours after irradiation): the killing effect was again mitigated by genistein; also recorded: genistein was radioprotective
solubility [3]: low to virtually no solubility
